Literature values as cited in article PMC4278936 (Journal of computer-aided molecular design, 2014).

Target: T1, PfENR (Plasmodium falciparum, UniProt Q9BH77)
T1 sequence (Q9BH77 22-432): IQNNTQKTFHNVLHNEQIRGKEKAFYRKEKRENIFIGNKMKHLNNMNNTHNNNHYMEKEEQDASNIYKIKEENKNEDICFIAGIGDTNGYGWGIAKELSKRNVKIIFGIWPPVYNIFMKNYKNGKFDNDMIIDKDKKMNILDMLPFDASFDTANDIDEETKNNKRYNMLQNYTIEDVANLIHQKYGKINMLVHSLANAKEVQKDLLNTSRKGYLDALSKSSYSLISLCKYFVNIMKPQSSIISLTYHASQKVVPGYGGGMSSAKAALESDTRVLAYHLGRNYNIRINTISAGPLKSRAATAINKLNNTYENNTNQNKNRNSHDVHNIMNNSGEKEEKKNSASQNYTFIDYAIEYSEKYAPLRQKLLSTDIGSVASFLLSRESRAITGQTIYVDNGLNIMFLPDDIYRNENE
Settings: ref [32], [60]

Which “Concentration range in which TCL inhibits PfENR” value does the source give for `Oc1cc(Cl)ccc1Oc1ccc(Cl)cc1Cl` [compound 1, Triclosan] here?
The value was “picomolar to nanomolar range”.
